Data: patent US9456599B2, “Adjuvants” (SYNGENTA LIMITED, priority 2012, dated 2016)

Experiments:
Assay type in all cases: in vivo
[1] = system: Septoria tritici; test: Septoria tritici on wheat, isopyrazam with B92-P-/B96-P-carbonate (Example 10); details: wheat leaf area infected 14 days after spray; isopyrazam 3, 10, 30 and 100 mg/l, adjuvant 0.1% by volume; mean over four rates, twelve replicates
Protocol: Wheat plants were inoculated with the fungus Septoria tritici. Four days after inoculation the plants were sprayed with a diluted suspension concentrate formulation of the fungicide isopyrazam at rates of 3, 10, 30 and 100 mg of the fungicide per liter of spray solution, using a laboratory track sprayer which delivered the spray at a rate of 200 liters per hectare. Spray tests were also carried out with diluted suspension concentrates additionally comprising the carbonates B92-P-carbonate and B96-P-carbonate (see Table 1) which were added to the spray solution at a rate of 0.1% v/v, based on the quantity of spray liquor. The leaves of the plants were assessed visually 14 days after the spray application and the damage was expressed as the percentage of the leaf area infected. Each spray test was replicated twelve times across the four application rates.
(§1) The results shown in Table 15 below are mean averages over the four rates of isopyrazam and the twelve replicates, and are compared to the efficacy of isopyrazam in the absence of an adjuvant, and isopyrazam in the presence of oleyl ethoxylate 20EO butyl end capped which was used as a standard for comparative purposes (at 0.1% by volume).

[2] = system: Septoria tritici; test: Septoria tritici on wheat, isopyrazam with compound E (Example 8); details: wheat leaf area infected 12 days after spray; isopyrazam 3, 10, 30 and 100 mg/l, adjuvant 0.1% by volume; mean over four rates, four replicates
Protocol: Wheat plants were inoculated with the fungus Septoria tritici. Four days after inoculation the plants were sprayed with a diluted suspension concentrate formulation of the fungicide isopyrazam at rates of 3, 10, 30 and 100 mg of the fungicide per liter of spray solution, using a laboratory track sprayer which delivered the spray at a rate of 200 liters per hectare. Spray tests were also carried out with a diluted suspension concentrate additionally comprising the carbonate compound E (see Table 7) added to the spray solution at a rate of 0.1% v/v, based on the quantity of spray liquor. The leaves of the plants were assessed visually 12 days after the spray application and the damage was expressed as the percentage of the leaf area infected. Each spray test was replicated four times across the four application rates.
as §1, with “13” for “15”, “four” for “twelve”, “adjuvant” for “which was”, “standard adjuvant” for “standard”

[3] = system: Avena fatua, Lolium perenne, Setaria viridis and Alopecurus myosuroides; test: Glasshouse post-emergence spray test, pinoxaden with adjuvant (Example 4), mean across species; details: pinoxaden 7.5 or 15 g/ha, adjuvant 0.2%; 14 and 21 days; Tukey HSD letter
Source text: (§2) When the plants were at the vegetative stage of 2-3 leaves they were sprayed with an aqueous spray solution containing the herbicide pinoxaden and 0.2% v/v of one of the carbonates B92-P-Carbonate, B92-B-Carbonate and B96-P-Carbonate (see Table 1).
(§3) The spray solution was applied with a cabinet tracksprayer with a flat fan nozzle (Teejet 11002VS) and an application volume of 200 liter/ha (at 2 bar). Pinoxaden was applied at either 7.5 or 15 grams of pesticide per hectare. […] After 14 and 21 days the test was evaluated for general crop injury (100% equals total damage to a plant; 0% equals no damage to a plant).

[4] = system: Avena fatua, Lolium perenne, Setaria viridis and Alopecurus myosuroides; test: Glasshouse spray test, pinoxaden with carbonates A-E (Example 7), mean over four plant species; details: 22 days, mean over rates, replicates, four species
Protocol: (§4) Avena fatua, Lolium perenne, Setaria viridis and Alopecurus myosuroides seeds were sown into standard soil in pots and cultivated under controlled conditions in a glasshouse (at 20/16° C. day/night; 15 hours light; 65% humidity).
When the plants were at the vegetative stage of 2-3 leaves they were sprayed with an aqueous spray solution containing the herbicide pinoxaden and 0.2% v/v of one of the carbonates A, B, C, D and E (see Table 7).
The spray solution was applied with a cabinet tracksprayer with a flat fan nozzle (Teejet 11002VS) and an application volume of 200 liter/ha (at 2 bar). Pinoxaden was applied at either 7.5 or 15 grams of pesticide per hectare.
(§5) The test plants were then grown on. in a glasshouse under controlled conditions (at 24/18° C. day/night; 16 hours light; 65% humidity) and watered twice a day. After 22 days the test was evaluated for general crop injury or phytotoxicity (100% equals total damage to a plant; 0% equals no damage to a plant).
The results shown in Table 11 below are mean averages over the two rates of pinoxaden, the three replicates and the four plant species, and are compared to the efficacy of pinoxaden in the absence of an adjuvant, and pinoxaden in the presence of tris(2-ethylhexyl)phosphate, used as a standard adjuvant for comparative purposes (at 0.2% by […] volume).

[5] = system: Setaria viridis; test: Glasshouse post-emergence spray test, pinoxaden with adjuvant (Example 4); details: pinoxaden 7.5 or 15 g/ha, adjuvant 0.2%; mean over two rates, three replicates, 14 and 21 days
Protocol: as §4, §2
The spray solution was applied with a cabinet tracksprayer with a flat fan nozzle (Teejet 11002VS) and an application volume of 200 liter/ha (at 2 bar). Pinoxaden was applied at either 7.5 or 15 grams of pesticide per hectare. The test plants were then grown on in a glasshouse under controlled conditions (at 24/18° C. day/night; 16 hours light; 65% humidity) and watered twice a day. After 14 and 21 days the test was evaluated for general crop injury (100% equals total damage to a plant; 0% equals no damage to a plant).
The results shown in Table 6 below are mean averages over the two rates of pinoxaden, three replicates and the two assessment timings, and are compared to the efficacy of pinoxaden in the absence of an adjuvant, and pinoxaden in the presence of the tris(2-ethylhexyl)phosphate [TEHP, used as a standard, for comparative purposes] (at 0.2% by volume).

[6] = system: Avena fatua; test: as above; details: pinoxaden 7.5 or 15 g/ha, adjuvant 0.2%; mean over two rates, three replicates, 14 and 21 days
Source text: as §2, §3

[7] = system: Lolium perenne; test: as above; details: pinoxaden 7.5 or 15 g/ha, adjuvant 0.2%; mean over two rates, three replicates, 14 and 21 days
Source text: as §2, §3

[8] = system: Alopecurus myosuroides; test: as above; details: pinoxaden 7.5 or 15 g/ha, adjuvant 0.2%; mean over two rates, three replicates, 14 and 21 days
Source text: as §2, §3

[9] = system: Brachiaria plantaginea, Digitaria sanguinalis, Commelina benghalensis and Polygonum convulvulus; test: Glasshouse post-emergence spray test, mesotrione with adjuvant (Example 3), mean across species; details: mesotrione 30 or 60 g/ha, carbonate 0.2% or 0.5% Tween 20 + Rhodasurf DA/630-E; 14 and 21 days; Tukey HSD letter
Protocol: (§6) Brachiaria plantaginea, Digitaria sanguinalis, Commelina benghalensis and Polygonum convulvulus seeds were sown into standard soil in pots and cultivated under controlled conditions in a glasshouse (at 24/18° C. day/night; 16 hours light; 65% humidity).
(§7) When the plants were at the vegetative stage of 2-4 leaves they were sprayed with an aqueous spray solution containing the herbicide mesotrione and 0.2% v/v of one of the carbonates B92-P-Carbonate, B92-B-Carbonate and B96-P-Carbonate (see Table 1).
(§8) The spray solution was applied with a cabinet tracksprayer with a flat fan nozzle (Teejet 11002VS) and an application volume of 200 liter/ha (at 2 bar). Mesotrione was applied at either 30 or 60 grams of pesticide per hectare.
(§9) The test plants were then grown on, in a glasshouse under controlled conditions (at 24/18° C. day/night; 16 hours light; 65% humidity) and watered twice a day. After 14 and 21 days the test was evaluated for general crop injury (100% equals total damage to a plant; 0% equals no damage to a plant).
(§10) The results shown in Table 5 below are mean averages over the two rates of mesotrione, three replicates and the two assessment timings, and are compared to the efficacy of mesotrione in the absence of an adjuvant, and mesotrione in the presence of the commercially available tank-mix adjuvant, Tween 20 ®+Rhodasurf DA/630-E® (2:1 in water).

[10] = system: Commelina benghalensis; test: Glasshouse post-emergence spray test, mesotrione with adjuvant (Example 3); details: mesotrione 30 or 60 g/ha, carbonate 0.2% or 0.5% Tween 20 + Rhodasurf DA/630-E; mean over two rates, three replicates, 14 and 21 days
Protocol: as §6, §7, §8, §9, §10

[11] = system: Polygonum convulvulus; test: as above; details: mesotrione 30 or 60 g/ha, carbonate 0.2% or 0.5% Tween 20 + Rhodasurf DA/630-E; mean over two rates, three replicates, 14 and 21 days
Protocol: as §6, §7, §8, §9, §10

[12] = system: Digitaria sanguinalis; test: as above; details: mesotrione 30 or 60 g/ha, carbonate 0.2% or 0.5% Tween 20 + Rhodasurf DA/630-E; mean over two rates, three replicates, 14 and 21 days
Protocol: as §6, §7, §8, §9, §10

[13] = system: Brachiaria plantaginea; test: as above; details: mesotrione 30 or 60 g/ha, carbonate 0.2% or 0.5% Tween 20 + Rhodasurf DA/630-E; mean over two rates, three replicates, 14 and 21 days
Protocol: as §6, §7, §8, §9, §10

[14] = system: Brachiaria plantaginea, Digitaria sanguinalis, Commelina benghalensis and Polygonum convulvulus; test: Glasshouse spray test, mesotrione with carbonates A-D (Example 6), mean over four plant species; details: Table 10: mesotrione 30 or 60 g/ha, compounds A-D 0.2%, Tween + Rhodasurf 0.5%; 25 days; mean over rates, replicates, four species
Protocol: as §6
When the plants were at the vegetative stage of 2-4 leaves they were sprayed with an aqueous spray solution containing the herbicide mesotrione and 0.2% v/v of one of the carbonates A, B, C and D (see Table 7).
as §8
as §5, with “on,” for “on.”, “25” for “22”
as §10, with “10” for “5”, “mesotrione, the” for “mesotrione,”, “four plant species” for “two assessment timings,”, “(combined” for “(2:1”, “a 2:1 ratio) at 0.5% by volume.” for “water).”

## CC(C)C1C2CCC1c1c(NC(=O)c3cn(C)nc3C(F)F)cccc12 (stereo not drawn) [Isopyrazam]
[1]
  Mean % infection: 76.9%
[2]
  Mean % infection: 65.1%

## CCc1cc(C)cc(CC)c1-c1c(OC(=O)C(C)(C)C)n2n(c1=O)CCOCC2 [Pinoxaden]
[3]
  Mean percentage kill, Mean across species: 2.9 C %
[4]; Table 11: pinoxaden 7.5 or 15 g/ha, compounds A-D or tris(2-ethylhexyl)phosphate 0.2% by volume
  Mean % Phytotoxicity: 4.25%
[4]; Table 12: pinoxaden 7.5 or 15 g/ha, compound E or tris(2-ethylhexyl)phosphate 0.2% by volume
  Mean % Phytotoxicity: 0%
[5]
  Mean percentage kill SETARIA VIRIDIS: 0%
[6]
  Mean percentage kill AVENA FATUA: 10.0%
[7]
  Mean percentage kill LOLIUM PERENNE: 1.7%
[8]
  Mean percentage kill ALOPECURUS MYOSUROIDES: 0%

## CS(=O)(=O)c1ccc(C(=O)C2C(=O)CCCC2=O)c([N+](=O)[O-])c1 [Mesotrione]
[9]
  Mean percentage kill, Mean across species: 42.5 B %
[10]
  Mean percentage kill COMBEN: 53.3%
[11]
  Mean percentage kill POLCONV: 70.8%
[12]
  Mean percentage kill DIGSA: 44.2%
[13]
  Mean percentage kill BRAPL: 1.7%
[14]
  Mean % Phytotoxicity: 33.71%
